Test results: patent publication US7166598B2, “Piperazine derivatives” (Astellas Pharma Inc., priority 1998, dated 2007)

Row | SMILES | melting point
1 | COc1cc(C(=O)N2CCN(Cc3cccnc3)C[C@H]2Cc2ccc3ccccc3c2)cc(C(F)(F)F)c1.Cl.Cl | 162 to 168 °C
2 | COC[C@@H]1CN(CCN2CCN(C(=O)c3cc(SC)cc(C(F)(F)F)c3)[C@H](Cc3ccc(C)c(O)c3)C2)CCO1.Cl.Cl | 154 to 168 °C
3 | COC[C@@H]1CN(CCN2CCN(C(=O)c3cc(C(F)(F)F)cc(S(=O)(=O)N(C)C)c3)[C@H](Cc3ccc(C)c(O)c3)C2)CCO1.Cl.Cl | 153.5 to 160 °C
4 | COC[C@@H]1CN(CC#CCN2CCN(C(=O)c3cc(C(F)(F)F)cc(C(F)(F)F)c3)C(Cc3ccc(C)c(O)c3)C2)[C@@H](C)CO1.Cl.Cl (stereo partly shown) | 110 to 135 °C
5 | CNc1cc(C(=O)N2CCN(CCN3C[C@@H](C)O[C@@H](C)C3)C[C@H]2Cc2ccc(Cl)cc2)cc(C(F)(F)F)c1.Cl.Cl | 245.6 to 248.7 °C
6 | C[C@@H]1CN(CCN2CCN(C(=O)c3cc(F)cc(C(F)(F)F)c3)[C@H](Cc3ccc(Cl)cc3)C2)C[C@H](C)O1.Cl.Cl | 80.1 to 82.5 °C
7 | C[C@@H]1CN(CCN2CCN(C(=O)c3cc(Cl)cc(Cl)c3)[C@H](Cc3ccc(Cl)cc3)C2)C[C@H](C)O1.Cl.Cl | 140.1 to 143.8 °C
8 | Cl.Cl.Cl.Cl.O=C(c1cc(-c2ccncc2)cc(C(F)(F)F)c1)N1CCN(CCN2CCc3ncccc3C2)C[C@H]1Cc1ccc(Cl)cc1 | 206 to 217 °C
9 | Cl.Cl.Cl.O=C(c1cc(F)cc(C(F)(F)F)c1)N1CCN(CCN2CCc3ncccc3C2)C[C@H]1Cc1ccc(Cl)cc1 | 127.3 to 130.9 °C
10 | COC[C@@H]1CN(C/C=C\CN2CCN(C(=O)c3cc(C(F)(F)F)cc(C(F)(F)F)c3)[C@H](Cc3ccc(C)c(O)c3)C2)CCO1.Cl.Cl | 180 to 200 °C
11 | COCC1(COC)CN(CCN2CCN(C(=O)c3cc(C(F)(F)F)cc(C(F)(F)F)c3)[C@H](Cc3ccc(C(F)(F)F)cc3)C2)CCO1.Cl.Cl | 123 to 149 °C
12 | Cl.Cl.O=C(c1cc(C(F)(F)F)cc(C(F)(F)F)c1)N1CCN(CCN2CC3CCC(C2)O3)C[C@H]1Cc1ccc(C(F)(F)F)cc1 | 232 to 250 °C
13 | CN(C)S(=O)(=O)c1cc(C(=O)N2CCN(CCN3CCc4ncccc4C3)C[C@H]2Cc2ccc(C(F)(F)F)cc2)cc(C(F)(F)F)c1.Cl.Cl.Cl | 190 to 194 °C
14 | COC[C@H]1CN(CCN2CCN(C(=O)c3cc(C(F)(F)F)cc(C(F)(F)F)c3)[C@H](Cc3ccc(C(F)(F)F)cc3)C2)CCO1.Cl.Cl | 188 to 194 °C
15 | Cl.Cl.O=C(c1cc(C(F)(F)F)cc(C(F)(F)F)c1)N1CCN(CCN2CCC[C@H]2CO)C[C@H]1Cc1ccc(C(F)(F)F)cc1 | 221 to 224 °C
16 | COC[C@@H]1C[C@H](COC)CN(CCN2CCN(C(=O)c3cc(C(F)(F)F)cc(C(F)(F)F)c3)[C@H](Cc3ccc(C(F)(F)F)cc3)C2)C1.Cl.Cl | 157 to 160 °C

Row | SMILES | melting point
17 | COc1cc(C(=O)N2CCN(CCN3CCc4ncccc4C3)C[C@H]2Cc2ccc(C)c(O)c2)cc(C(F)(F)F)c1.Cl.Cl.Cl | 192 to 208 °C
18 | COc1cc(C(=O)N2CCN(CC#CCN3CCOCC3(C)C)C[C@H]2Cc2ccc(C)c(O)c2)cc(C(F)(F)F)c1.Cl.Cl | 181 to 188 °C
19 | C[C@@H]1CN(CCN2CCN(C(=O)c3cc(Cl)cc(C(F)(F)F)c3)[C@H](Cc3ccc(Cl)c(O)c3)C2)C[C@H](C)O1.Cl.Cl | 196 to 199 °C
20 | Cl.Cl.Cl.O=C(c1cc(Cl)cc(C(F)(F)F)c1)N1CCN(CCN2CCc3ncccc3C2)C[C@H]1Cc1ccc(Cl)c(O)c1 | 200 to 204 °C
21 | Cl.Cl.Cl.Cl.O=C(c1cc(-c2ccncc2)cc(C(F)(F)F)c1)N1CCN(CCN2CCc3ncccc3C2)C[C@H]1Cc1ccc(C(F)(F)F)cc1 | 205 to 218 °C
22 | COC[C@@H]1CN(CCN2CCN(C(=O)c3cc(C)cc(C(F)(F)F)c3)[C@H](Cc3ccc(Cl)cc3)C2)CCO1.Cl.Cl | 148 to 151 °C
23 | COC[C@@H]1CN(CCN2CCN(C(=O)c3cc(SC)cc(C(F)(F)F)c3)[C@H](Cc3ccc(Cl)c(O)c3)C2)CCO1.Cl.Cl | 169 to 174 °C
24 | COC[C@@H]1CN(CCN2CCN(C(=O)c3cc(OC)cc(C(F)(F)F)c3)[C@H](Cc3ccc(C(F)(F)F)c(OC)c3)C2)CCO1.Cl.Cl | 135 to 140 °C
25 | COc1cc(C(=O)N2CCN(CCN3CCc4ncccc4C3)C[C@H]2Cc2ccc(C(F)(F)F)cc2)cc(C(F)(F)F)c1.Cl.Cl.Cl | 185 to 191 °C
26 | COc1cc(C(=O)N2CCN(CCN3CCC(F)(F)CC3)C[C@H]2Cc2ccc(Cl)cc2)cc(C(F)(F)F)c1.Cl.Cl | 220 to 250 °C
27 | COc1cc(C(=O)N2CCN(CCN3CCc4ncccc4C3)C[C@H]2Cc2ccc(Cl)cc2)cc(C(F)(F)F)c1.Cl.Cl.Cl | 140 to 170 °C
28 | COc1cc(C(=O)N2CCN(CCN3C[C@@H](C)O[C@@H](C)C3)C[C@H]2Cc2ccc3ccccc3c2)cc(C(F)(F)F)c1.Cl.Cl | 188 to 193 °C
29 | COc1cc(C(=O)N2CCN(CCN3CCc4ncccc4C3)C[C@H]2Cc2ccc3ccccc3c2)cc(C(F)(F)F)c1.Cl.Cl.Cl | 173 to 183 °C
30 | COC[C@H]1CN(CCN2CCN(C(=O)c3cc(OC)cc(C(F)(F)F)c3)[C@H](Cc3c[nH]c4ccccc34)C2)CCO1.Cl.Cl | 200 to 210 °C
31 | COc1cc(C(=O)N2CCN(CCN3C[C@@H](C)O[C@@H](C)C3)C[C@H]2Cc2c[nH]c3ccccc23)cc(C(F)(F)F)c1.Cl.Cl | 188 to 200 °C

Other lines, results leading:

Row | melting point | SMILES
32 | 50 to 60 °C | Cl.Cl.O=C(c1cc(C(F)(F)F)cc(C(F)(F)F)c1)N1CCN(Cc2cccnc2)C[C@H]1Cc1ccc(F)c(O)c1
33 | 130 to 137.3 °C | Cl.Cl.O=C(c1cc(C(F)(F)F)cc(C(F)(F)F)c1)N1CCN(Cc2cccnc2)C[C@H]1Cc1ccc(F)cc1
34 | > 250 °C | Cl.Cn1cc(CN2CCN(C(=O)c3cc(C(F)(F)F)cc(C(F)(F)F)c3)[C@H](Cc3ccc4ccccc4c3)C2)cn1
35 | 65 to 70 °C | Cl.Cl.O=C(c1cc(C(F)(F)F)cc(C(F)(F)F)c1)N1CCN(CCCc2cccnc2)C[C@H]1Cc1ccc(Cl)c(O)c1
36 | 127 to 135 °C | COc1cc(C[C@@H]2CN(Cc3cnn(C)c3)CCN2C(=O)c2cc(C(F)(F)F)cc(C(F)(F)F)c2)ccc1F.Cl
37 | 143 to 147 °C | COc1cc(C[C@@H]2CN(Cc3cccnc3)CCN2C(=O)c2cc(C(F)(F)F)cc(C(F)(F)F)c2)ccc1F.Cl.Cl
38 | 210 to 220 °C | Cc1ccc(C[C@@H]2CN(CCN3[C@H](C)COC[C@@H]3C)CCN2C(=O)c2cc(C(F)(F)F)cc(C(F)(F)F)c2)cc1O.Cl.Cl
39 | 170 to 200 °C | Cc1ccc(C[C@@H]2CN(Cc3ccc4ncccc4c3)CCN2C(=O)c2cc(C(F)(F)F)cc(C(F)(F)F)c2)cc1O.Cl.Cl
40 | 160 to 180 °C | Cc1ccc(C[C@@H]2CN(Cc3cnn(C)c3)CCN2C(=O)c2cc(C(F)(F)F)cc(C(F)(F)F)c2)cc1O.Cl
41 | 173 to 185 °C | Cc1ccc(CC2CN(CCN3C[C@H]4C[C@H]3C(C)(C)O4)CCN2C(=O)c2cc(C(F)(F)F)cc(C(F)(F)F)c2)cc1O.Cl.Cl (stereo partly shown)
42 | 225 to 235 °C | COC[C@H]1CN(CCN2CCN(C(=O)c3cc(C(F)(F)F)cc(C(F)(F)F)c3)[C@H](Cc3ccc(C)c(O)c3)C2)CCO1.Cl.Cl
43 | 240 to 250 °C | Cc1ccc(C[C@@H]2CN(CCN3[C@@H](C)COC[C@@H]3C)CCN2C(=O)c2cc(C(F)(F)F)cc(C(F)(F)F)c2)cc1O.Cl.Cl
44 | 205 to 215 °C | Cc1ccc(C[C@@H]2CN(Cc3csc(N)n3)CCN2C(=O)c2cc(C(F)(F)F)cc(C(F)(F)F)c2)cc1O.Cl.Cl
45 | 177 to 182 °C | Cc1ccc(C[C@@H]2CN(Cc3nsc(N)n3)CCN2C(=O)c2cc(C(F)(F)F)cc(C(F)(F)F)c2)cc1O.Cl.Cl
46 | 70 to 80 °C | COc1cc(C(=O)N2CCN(CCCc3cccnc3)C[C@H]2Cc2ccc(C(F)(F)F)cc2)cc(C(F)(F)F)c1.Cl.Cl
47 | 167 to 172 °C | COC[C@@H]1COCCN1CCN1CCN(C(=O)c2cc(C(F)(F)F)cc(C(F)(F)F)c2)C(Cc2ccc(C)c(O)c2)C1.Cl.Cl (stereo partly shown)
48 | 156 to 163 °C | CNc1cc(C[C@@H]2CN(CCN3CCO[C@H](COC)C3)CCN2C(=O)c2cc(C(F)(F)F)cc(C(F)(F)F)c2)ccc1C.Cl.Cl.Cl
49 | 159 to 161 °C | COc1cc(C[C@@H]2CN(CCN3[C@H](CO)CCC[C@@H]3CO)CCN2C(=O)c2cc(C(F)(F)F)cc(C(F)(F)F)c2)ccc1F.Cl.Cl
50 | 218 to 228 °C | COC[C@@H]1CN(CCN2CCN(C(=O)c3cc(C(F)(F)F)cc(C(F)(F)F)c3)[C@H](Cc3ccc(C(C)C)c(O)c3)C2)CCO1.Cl.Cl
51 | 175 to 185 °C | COc1cc(C[C@@H]2CN(CCN3CCc4ncccc4C3)CCN2C(=O)c2cc(C(F)(F)F)cc(C(F)(F)F)c2)ccc1F.Cl.Cl.Cl
52 | 156 to 168 °C | COC[C@@H]1CN(CCN2CCN(C(=O)c3cc(C(F)(F)F)cc(C(F)(F)F)c3)[C@H](Cc3ccc(F)c(O)c3)C2)CCO1.Cl.Cl
53 | 180 to 184 °C | CC1(C)COCCN1CC#CCN1CCN(C(=O)c2cc(C(F)(F)F)cc(C(F)(F)F)c2)[C@H](Cc2ccc(F)c(O)c2)C1.Cl.Cl
54 | 180 to 190 °C | COC[C@@H]1CN(CCN2CCN(C(=O)c3cc(C(F)(F)F)cc(C(F)(F)F)c3)[C@H](Cc3ccc(F)c(OC)c3)C2)CCO1.Cl.Cl
55 | 196 to 198 °C | COC[C@@H]1CN(CCN2CCN(C(=O)c3cc(C(F)(F)F)cc(C(F)(F)F)c3)[C@H](Cc3ccc(F)c(F)c3)C2)CCO1.Cl.Cl
56 | 190 to 200 °C | COc1cc(C(=O)N2CCN(CCN3CCc4ncccc4C3)C[C@H]2Cc2ccc(C(F)(F)F)c(OC)c2)cc(C(F)(F)F)c1.Cl.Cl.Cl
57 | 200 to 229 °C | Cl.Cn1cc(CN2CCN(C(=O)c3cc(C(F)(F)F)cc(C(F)(F)F)c3)[C@H](Cc3ccc(C(F)(F)F)cc3)C2)cn1
58 | 150 to 175 °C (dec.) | C[C@@H]1CN(CCN2CCN(C(=O)c3cc(C(F)(F)F)cc(C(F)(F)F)c3)[C@H](Cc3ccc(Cl)cc3)C2)C[C@H](C)O1.Cl.Cl
59 | 172 to 175 °C | C[C@@H]1CN(CCN2CCN(C(=O)c3cc(C(F)(F)F)cc(C(F)(F)F)c3)[C@H](Cc3ccc(Cl)c(O)c3)C2)C[C@H](C)O1.Cl.Cl
60 | 264 to 270.6 °C | Cl.Cl.O=C(c1cc(C(F)(F)F)cc(C(F)(F)F)c1)N1CCN(CCN2CCC(F)(F)CC2)C[C@H]1Cc1ccc(F)cc1
61 | 237 to 243 °C (dec.) | Cl.Cl.Cl.O=C(c1cc(C(F)(F)F)cc(C(F)(F)F)c1)N1CCN(CCN2CCc3ncccc3C2)C[C@H]1Cc1ccc(Cl)c(O)c1
